Experimental data: patent publication US20200139012A1, “METHODS AND MATERIALS FOR IMMUNOMODULATION OF TISSUE GRAFTS” (UNIVERSITY OF WYOMING, priority 2018, published 2020)

What was measured:
[1] = system: DRGs, motor neurons, and Schwann cells; details: 72 h; for Measures in vitro tolerated concentrations on PN cells: rat
Experimental: It is contemplated that delivery of immunosuppressive agents function within a favorable therapeutic window. PNs are comprised of three major nervous system cell types, motor neurons, sensory neurons, and Schwann cells. […] FIG. 1B illustrates data regarding the toxicity of tacrolimus to DRGs, motor neurons, and Schwann cells. FIG. 1C illustrates data regarding the toxicity of prednisolone to DRGs, motor neurons, and Schwann cells.
Cells (DRGs, motor neurons, and Schwann cells) were cultured for 72 hours in various concentration of the immunosuppressive drugs and viability was evaluated using the Alamar blue viability assay. ISV's were diluted into media using a maximum of 1% dimethylsulfoxide (DMSO).
FIG. 2B illustrates data regarding the viability of DRGs, motor neurons, and Schwann cells cultured in about 10 μM tracrolimus with differing concentrations of prednisolone.

immune cells = details: cited from earlier work; for in vitro effective concentration on immune cells: Table 1
[2] = Table 1; cited from earlier work

Compound | tolerated by the cells at doses up to [1] | Measures in vitro tolerated concentrations on PN cells [1] | in vitro effective concentration on immune cells (immune cells) | effective dose for inhibiting activation and proliferation of immune cells (immune cells) | Effective clinical plasma concentration [2]
C[C@]12C=CC(=O)C=C1CC[C@@H]1[C@@H]2[C@@H](O)C[C@@]2(C)[C@H]1CC[C@]2(O)C(=O)CO [Prednisolone, prednisolone] | up to 200 μM | 200 µM | 240 nM | greater than 240 μM | 277 nM
C=CC[C@@H]1/C=C(\C)C[C@H](C)C[C@H](OC)[C@H]2O[C@@](O)(C(=O)C(=O)N3CCCC[C@H]3C(=O)O[C@H](/C(C)=C/[C@@H]3CC[C@@H](O)[C@H](OC)C3)[C@H](C)[C@@H](O)CC1=O)[C@H](C)C[C@@H]2OC [Tacrolimus, tacrolimus] | 10 to 25 µM | 10 to 25 µM | 0.5 to 1.0 nM | 50 to 100 µM | 21 nM
